Experimental findings from ChEMBL document CHEMBL1201862, “PubChem BioAssay data set” (2004) are described below.

SMILES strings stand for the structures.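 Following 48 hours of exposure in 96-well plates, responses at five concentrations were used to interpolate endpoints linearly. Here, GI50 denotes the concentration required for 50% inhibition of growth.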 Calls of active or inactive are those of the source. Cut-off read from the data, not from the text of the source: active = GI50 up to about 1.1 µM and inactive = higher.

Test systems include NCI-H460; SF-295; KM12; IGROV-1; ACHN; RPMI-8226; OVCAR-5; HT-29; SNB-19; EKVX; BT-549; K562; SF-539; HCT-15; UO-31; MDA-MB-231; LOX IMVI; HOP-92; MCF7; SR.
Assay in all cases: NCI tumour cell line growth inhibition, 48 h

`CC1=NN(C(=O)CC(=O)Nc2cccc(C)c2)C(=O)C1/N=N\c1ccc(S(=O)(=O)c2ccc(/N=N/C3C(=O)N(C(=O)CC(=O)Nc4cccc(C)c4)N=C3C)cc2)cc1` (stereo not given): the GI50 in the assay with NCI-H460, in the assay with SF-295, in the assay on KM12, in the assay with IGROV-1, with ACHN and with RPMI-8226 was > 100 µM (inactive) in each case. Also, the GI50 in the assay with OVCAR-5, in the assay with HT-29, with SNB-19, in the assay with EKVX, in the assay on BT-549 and in the assay with K562 was > 100 µM (inactive) in each case. Besides, the GI50 with SF-539 was > 100 µM (inactive); with HCT-15 it was over 100 µM; in the assay with UO-31 it was > 100 µM (inactive); in the assay with MDA-MB-231, > 100 µM (inactive); in the assay on LOX IMVI, > 100 µM (inactive); in the assay on HOP-92, > 100 µM (inactive). Also, the GI50 in the assay with MCF7 and in the assay with SR was > 100 µM (inactive) throughout.

With `COc1cc2nc3c(=C(C#N)C#N)c4ccccc4n3c(=O)c2cc1OC`, the GI50 in the assay with NCI-H460, in the assay with SF-295, in the assay on KM12, in the assay on IGROV-1, in the assay on ACHN and with RPMI-8226 was > 100 µM (inactive) throughout. Moreover, the GI50 in the assay on OVCAR-5, with HT-29, with SNB-19, in the assay on EKVX, in the assay on BT-549 and in the assay with K562 was > 100 µM (inactive) throughout. For the same compound, the GI50 with SF-539 is > 100 µM (inactive); in the assay with HCT-15, over 100 µM; in the assay with UO-31, > 100 µM (inactive); in the assay with MDA-MB-231, > 100 µM (inactive); in the assay on LOX IMVI, > 100 µM (inactive); with HOP-92, 36.5 µM (inactive). The GI50 in the assay on MCF7 and in the assay on SR was > 100 µM (inactive) each time.

On to `CC1(C)OC[C@@H](/C=C\CCO[Si](c2ccccc2)(c2ccccc2)C(C)(C)C)N1C(=O)c1ccccc1`, for which the GI50 in the assay on NCI-H460 is 3.79 µM (inactive); with SF-295, 13.1 µM (inactive); in the assay on KM12, 7.96 µM (inactive); in the assay with IGROV-1 it was 28.6 µM (inactive); in the assay on ACHN, 12.3 µM (inactive); in the assay with RPMI-8226 it was 2.86 µM (inactive). The GI50 was 16.3 µM (inactive) with OVCAR-5; 4.14 µM (inactive) in the assay with HT-29; 17.9 µM (inactive) with SNB-19; 5.75 µM (inactive) in the assay on EKVX; 18.5 µM (inactive) in the assay with BT-549; 3.1 µM (inactive) in the assay on K562. The GI50 was 18.3 µM (inactive) in the assay with SF-539; 5.13 µM in the assay with HCT-15; 11.9 µM (inactive) in the assay on UO-31; 10.9 µM (inactive) in the assay with MDA-MB-231; 13.6 µM (inactive) in the assay with LOX IMVI; 14.4 µM (inactive) in the assay with HOP-92. In addition, the GI50 in the assay on MCF7 is 6.32 µM (inactive); in the assay with SR it was 2.79 µM (inactive).

For `O=C1C(N2CCOCC2)=C(Cl)C(=O)c2ncccc21`, the GI50 in the assay on NCI-H460 is > 6.79 µM (inactive); with SF-295, > 10 µM (inactive); in the assay on KM12, > 3.84 µM (inactive); with IGROV-1 it was > 8.53 µM (inactive); in the assay on ACHN it was 1.85 µM (inactive); with RPMI-8226, 1.56 µM (inactive). Further, the GI50 in the assay on OVCAR-5 is > 10 µM (inactive); in the assay on HT-29 it was > 7.89 µM (inactive); in the assay on SNB-19 it was > 10 µM (inactive); with EKVX, > 10 µM (inactive); with BT-549, > 10 µM (inactive); in the assay on K562, 1.39 µM (inactive). Also, the GI50 with SF-539 was 4.89 µM (inactive); in the assay on HCT-15 it was 2.03 µM; with UO-31, 4.23 µM (inactive); with MDA-MB-231, 2.49 µM (inactive); in the assay on LOX IMVI, 1.94 µM (inactive); in the assay with HOP-92, 1.5 µM (inactive). For the same compound, the GI50 is 1.81 µM (inactive) in the assay with MCF7 and 0.778 µM (active) in the assay on SR.

For `O=C(/C(=C/c1cccs1)c1ccccc1)c1ccccc1`, the GI50 with NCI-H460 is > 100 µM (inactive); in the assay with SF-295, > 100 µM (inactive); in the assay with KM12 it was > 100 µM (inactive); in the assay on IGROV-1, > 100 µM (inactive); in the assay on ACHN, 39.4 µM (inactive); with RPMI-8226, > 100 µM (inactive). Also, the GI50 with OVCAR-5 was > 100 µM (inactive); in the assay with HT-29, 53.2 µM (inactive); in the assay on SNB-19, 30.5 µM (inactive); in the assay on EKVX it was > 100 µM (inactive); in the assay on BT-549, > 100 µM (inactive); in the assay with K562, > 100 µM (inactive). The GI50 with SF-539 was 17.5 µM (inactive); with HCT-15, over 100 µM; with UO-31, > 100 µM (inactive); with MDA-MB-231, 23.4 µM (inactive); in the assay on LOX IMVI, > 100 µM (inactive); in the assay on HOP-92, > 100 µM (inactive). For the same compound, the figures for the GI50 in the assay on MCF7 and with SR were > 100 µM (inactive) and 34.3 µM (inactive), respectively.

In the case of `Clc1ccc(C(Cc2cccc(Cl)c2)c2c(Cl)nc(N3CCNCC3)nc2Cl)cc1` (stereo not given), the GI50 with NCI-H460 was 16.7 µM (inactive); with SF-295, 16.8 µM (inactive); in the assay on KM12, 13.9 µM (inactive); in the assay on IGROV-1, 69.2 µM (inactive); with ACHN it was 15.5 µM (inactive); with RPMI-8226, 22.3 µM (inactive). Also, the GI50 in the assay with OVCAR-5 was 12.5 µM (inactive); with HT-29, > 100 µM (inactive); with SNB-19, 16.9 µM (inactive); in the assay with EKVX, 0.128 µM (active); in the assay on BT-549 it was 20.6 µM (inactive); with K562, 12.6 µM (inactive). Also, the GI50 in the assay with SF-539 is 19.5 µM (inactive); with HCT-15 it was 13.6 µM; in the assay with UO-31 it was 12.9 µM (inactive); with MDA-MB-231, 13.5 µM (inactive); in the assay on LOX IMVI it was 12.9 µM (inactive); with HOP-92, 13.9 µM (inactive). In addition, the GI50 in the assay on MCF7 is 10.8 µM (inactive); with SR, 5.38 µM (inactive).

With `CCOC(=O)CCC(NC(=O)c1ccc(Nc2nc3cc(C(F)(F)F)ccc3nc2-c2ccccc2)cc1)C(=O)OCC` (stereo not given), the GI50 is 24.4 µM (inactive) with NCI-H460; 33.4 µM (inactive) with SF-295; 17.7 µM (inactive) with KM12; 14.7 µM (inactive) in the assay on IGROV-1; 21 µM (inactive) in the assay with ACHN; 24.7 µM (inactive) in the assay on RPMI-8226. Moreover, the GI50 was > 100 µM (inactive) with OVCAR-5; 25.8 µM (inactive) with HT-29; 21.5 µM (inactive) in the assay on SNB-19; 20.2 µM (inactive) with EKVX; 25.2 µM (inactive) with BT-549; 23.4 µM (inactive) with K562. In addition, the GI50 in the assay on SF-539 was 31.3 µM (inactive); with HCT-15, 24.7 µM; in the assay on UO-31 it was 14.6 µM (inactive); with MDA-MB-231, 20.3 µM (inactive); with LOX IMVI, 19.8 µM (inactive); with HOP-92, 17.7 µM (inactive). Moreover, the GI50 in the assay with MCF7 was 20.6 µM (inactive); in the assay on SR it was 13.2 µM (inactive).

For `CCCCCCc1nn2c(-c3ccncc3)nnc2s1`, the GI50 in the assay with NCI-H460, in the assay on SF-295, with KM12, with IGROV-1, with ACHN and in the assay with RPMI-8226 was > 10 µM (inactive) throughout. The GI50 in the assay on OVCAR-5, in the assay on HT-29, with SNB-19, with EKVX, in the assay with BT-549 and with K562 was > 10 µM (inactive) in each case. In addition, the GI50 was > 10 µM (inactive) in the assay with SF-539; over 10 µM in the assay on HCT-15; 1.42 µM (inactive) in the assay on UO-31; > 10 µM (inactive) in the assay on MDA-MB-231; > 10 µM (inactive) in the assay on LOX IMVI; 8.65 µM (inactive) in the assay with HOP-92. Also, the GI50 with MCF7 and in the assay on SR was > 10 µM (inactive) throughout.

Take `CN(C)CCCn1nc(N)c2nc3cc(Cl)ccc3nc21`: the GI50 in the assay with NCI-H460 is 39.3 µM (inactive); in the assay with SF-295, > 77.1 µM (inactive); in the assay on KM12, 43.9 µM (inactive); in the assay with IGROV-1, 22.9 µM (inactive); in the assay with ACHN, 39.7 µM (inactive); with RPMI-8226 it was 60.3 µM (inactive). Moreover, the GI50 with OVCAR-5 was 40.4 µM (inactive); with HT-29, 27.9 µM (inactive); in the assay on SNB-19, 65.3 µM (inactive); in the assay with EKVX, > 66.5 µM (inactive); in the assay with BT-549 it was > 100 µM (inactive); in the assay with K562, > 76.2 µM (inactive). Besides, the GI50 in the assay with SF-539 was 38.2 µM (inactive); in the assay with HCT-15, 48.9 µM; with UO-31, 28.6 µM (inactive); in the assay on MDA-MB-231 it was 58.3 µM (inactive); in the assay on LOX IMVI it was 34.8 µM (inactive); with HOP-92, 25.3 µM (inactive). For the same compound, the GI50 in the assay on MCF7 is 33.3 µM (inactive); in the assay with SR it was 32.5 µM (inactive).

Take `Nc1nc(=O)n(C2OC(CO)C(O)C2O)c2ncc(-c3ccc(-c4ccccc4)cc3)nc12` (stereo not given): the GI50 in the assay with NCI-H460, in the assay on SF-295, with KM12, with IGROV-1, in the assay with ACHN and with RPMI-8226 was > 100 µM (inactive) in each case. Besides, the GI50 with OVCAR-5 was > 100 µM (inactive); with HT-29 it was > 100 µM (inactive); with SNB-19 it was 82.2 µM (inactive); with EKVX it was 94.8 µM (inactive); in the assay on BT-549, > 100 µM (inactive); in the assay on K562, > 100 µM (inactive). Moreover, the GI50 in the assay on SF-539 is > 100 µM (inactive); in the assay on HCT-15, over 100 µM; in the assay on UO-31, > 100 µM (inactive); in the assay with MDA-MB-231, 21 µM (inactive); with LOX IMVI it was 83.2 µM (inactive); with HOP-92 it was > 100 µM (inactive). The figures for the GI50 in the assay with MCF7 and in the assay with SR were 31.3 µM (inactive) and 3.63 µM (inactive), respectively.
